Test results as given in the METLIN SMRT retention time set (Domingo-Almenara et al. 2019).

Test: gradient 5% acetonitrile 3 min, to 50% in 2 min, to 85% in 15 min, held 3 min, 100 µL/min
Conditions: column: Zorbax Extend-C18 2.1 x 50 mm; eluents: water / acetonitrile, 0.1% formic acid
Outline: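 Each retention time is based on an adduct peak selected computationally and verified by manual inspection. Measurements used HPLC–quadrupole time-of-flight mass spectrometry in positive and negative ionization mode on mixtures of ~100 pure standards. Chromatography ran on a Zorbax Extend-C18 column (2.1 × 50 mm, 1.8 μm) at 100 μL/min with water and acetonitrile, each containing 0.1% formic acid, and dead and dwell volumes of 40 μL and 900 μL.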

| Compound | RP-LC retention time |
| --- | --- |
| O=C(Nc1ccccc1OC(F)F)c1ccc(S(=O)(=O)N2CCOCC2)cc1 | 841 s |
| CCOc1ccc(S(=O)(=O)N2CCCC(C(=O)Nc3ccccc3)C2)cc1 (configuration not stated) | 999 s |
| COc1ccc(F)cc1S(=O)(=O)NCCOc1ccc(-c2ccco2)nn1 | 742 s |
| Cc1ccc(NS(=O)(=O)c2cc(-c3nc(C(C)(C)C)cs3)cs2)c(C)c1 | 1310 s |
| CCOc1cccc(-c2noc(Cn3ccn(-c4ccccc4)c(=O)c3=O)n2)c1 | 858 s |
| O=C(c1ccc(F)c(Cl)c1)N1CCC(n2c(-c3ccoc3)nc3cccnc32)C1 (configuration not stated) | 735 s |
| CCOc1ccccc1NC(=O)c1c(O)c2cccnc2n(-c2ccc(F)cc2)c1=O | 1280 s |
| O=c1n(Cc2nc(-c3ccc(OC(F)(F)F)cc3)no2)nc2ccc(-c3ccccc3)nn12 | 1070 s |
| Cc1ccc(F)c2c(=O)c3c([nH]c12)CCN(CC(=O)Nc1cccc(F)c1)C3 | 620 s |
| Cc1ccc(CNC(=O)c2cc3sc(Cl)cc3n2C)cc1 | 1110 s |
| O=C(NCc1ccc(Br)cc1)C1CCN(c2nnc(-c3ccccc3)o2)CC1 | 884 s |
| COc1ccccc1N1CCN(CCCNc2cc(C(=O)O)c3ccccc3n2)CC1 | 575 s |
| COC(=O)CCC(=O)Nc1nc(-c2ccccc2)cs1 | 840 s |
| COC(=O)c1ccc(CSc2nnc(-c3cn(C)nc3OC)n2C)cc1 | 641 s |
| CN(C)CCNCc1ccc(-c2cc(Cl)ccc2Cl)o1 | 578 s |
| CCc1ccc(OCc2nc(CCN(C)C(=O)Nc3ccc(OC)c(OC)c3)no2)cc1 | 856 s |
| O=C(CN1CCN(Cc2cccc(Cl)c2)C1=O)NCc1ccncc1 | 599 s |
| CCc1noc(C2CCCCN2Cc2nc(-c3cccnc3)no2)n1 (configuration not stated) | 821 s |
| COc1ccc(S(=O)(=O)N2CCc3c(C(=O)NCCN(C)C)cccc32)cc1 | 635 s |
| CCCc1cc(N2CCN(c3ccccn3)CC2)n2nc(C)c(-c3ccccc3)c2n1 | 758 s |
| COC(=O)C1=CN(CC(=O)NCc2ccc(OC)cc2)S(=O)(=O)N=C1C | 1110 s |
| O=C(CCc1nc2ccccc2[nH]1)N1CCC(c2noc(-c3ccccn3)n2)C1 (configuration not stated) | 581 s |
| O=C(Cn1c(=O)cc(-c2nc(C3CC3)no2)c2ccccc21)Nc1ccc2c(c1)OCCO2 | 906 s |

| Compound | RP-LC retention time |
| --- | --- |
| CC(C)NC(=O)CSc1ccc(N2CCN(c3ccccc3)CC2)nn1 | 708 s |
| CCCCN(C)Cc1nc2nc(C)cc(N3CCOCC3)n2n1 | 582 s |
| CCN1C(=O)COc2ccc(-c3noc(C4CC(=O)N(c5ccc(C)cc5)C4)n3)cc21 (configuration not stated) | 878 s |
| O=C(Nc1ccc(S(=O)(=O)N2CCOCC2)cc1)c1ccc(Cl)s1 | 767 s |
| CCc1nn2c(CNC(=O)c3ccc(F)cc3)c(-c3ccccc3)nc2s1 | 914 s |
| Cc1ccc(S(=O)(=O)NC(C)c2nc(-c3ccc(NS(C)(=O)=O)cc3)no2)cc1 (configuration not stated) | 817 s |
| CCN1C(=O)c2cccnc2Sc2cc(NC(=O)Cc3c(F)cccc3Cl)ccc21 | 870 s |
| COc1ccccc1-c1noc(C2CCCN2C(=O)Nc2ccc(F)c(Cl)c2)n1 (configuration not stated) | 942 s |
| CC[C@@]1(O)C[C@H](OC2CC(N(C)C)C(O)C(C)O2)c2c(cc3c(c2O)C(=O)c2c(O)ccc(O)c2C3=O)[C@H]1C(=O)OC (some centres not stated) | 717 s |
| O=C(Nc1ccc2c(c1)OCCO2)C1CCCN(c2nccnc2Sc2ccccc2)C1 (configuration not stated) | 1030 s |
| CC1CCN(c2nc(-c3ccc(C(C)(C)C)cc3)nc3ccccc23)CC1 | 1070 s |
| Cc1nc(CC(=O)Nc2ccc(F)c(F)c2)cs1 | 754 s |
| COc1ccc(C)cc1Nc1c(-c2nc(C)no2)cnc2nc(C)ccc12 | 764 s |
| Cc1cc(SCC(=O)Nc2nc(-c3ccccc3)cs2)nc(C)n1 | 841 s |
| CC(C)Cn1c(=O)c(-c2ccc(C(=O)N3CCC4(CC3)OCCO4)cc2)nc2ccccc21 | 987 s |
| Cc1ccc(-c2nc3nc(C)cc(C)n3c2Nc2c(C)cccc2C)cc1 | 806 s |
| NC(=O)c1ccccc1OCC(=O)Nc1ccc(Cl)c(Cl)c1 | 895 s |
| CCn1ccc2c(cc(C(=O)Nc3ccc(Br)cc3C)n2C)c1=O | 832 s |
| O=C(CCCn1nc(-c2cccs2)ccc1=O)Nc1cccc2nsnc12 | 728 s |
| N#CC1(C(=O)NCCc2ccc(Cl)cc2)CC1 | 873 s |
| Fc1ccc(N2CCN(c3nnc(SCc4cccnc4)s3)CC2)cc1 | 633 s |
| Cc1ccn2cc(-c3ccc(NS(=O)(=O)c4ccc(Cl)cc4)cc3)nc2n1 | 679 s |

Now from value to compound:

| RP-LC retention time | Compound |
| --- | --- |
| 1020 s | Cc1cc(C(=O)N2CCCCC2)c2c(=O)n(Cc3nc(-c4ccccc4)oc3C)c(=O)n(C)c2n1 |
| 863 s | CCC(C)NC(=O)Cn1c(=O)cc(-c2nc(C3CC3)no2)c2ccccc21 (configuration not stated) |
| 1010 s | Cc1nc(-n2nc(C)c(CC(=O)N3CCCCCC3)c2C)sc1C |
| 597 s | CCOC(=O)c1c(C)c(CCC(=O)NCCN2CCOCC2)n(C)c1C |
| 830 s | CCc1ccc(CNC(=O)c2cc3c(=O)n(C)c(=O)n(C)c3s2)cc1 |
| 814 s | Cc1noc(C)c1Cc1ccc(C(=O)N2CCCCCCN(C)C(=O)[C@@H]3CCC[C@@H]32)o1 |
| 1290 s | Cc1ccc(Sc2nccnc2N2CCCC(C(=O)N3CCN(c4ccc(C)cc4)CC3)C2)cc1 (configuration not stated) |
| 1020 s | Cc1c(Cl)cccc1S(=O)(=O)N1CCC(C(=O)NCc2csc(-c3cccs3)n2)CC1 |
| 890 s | Cc1oc(C2CCN(S(=O)(=O)c3ccc(F)cc3)CC2)nc1C(=O)N1CCCC1 |
| 654 s | O=C(Nc1cccc(F)c1)c1nnc(CSCC(=O)N2CCN(c3ccccn3)CC2)s1 |
| 874 s | CC1CCN(S(=O)(=O)c2ccc3c(c2)CCCC(=O)N3CC(=O)NC2CCCC2)CC1 |
| 1090 s | COc1ccc(CNC(=O)C2CCCN(c3nc4ccccc4n(Cc4ccccc4)c3=O)C2)cc1 (configuration not stated) |
| 852 s | COc1ccc(CNC(=O)c2ccc3c(=O)n(-c4ccc(F)cc4)c(N4CCCC4)nc3c2)cc1 |
| 676 s | Cc1ccc(C(=O)N2CCN(c3nnc4ccccn34)CC2)cc1C |
| 630 s | CCn1nccc1C(=O)N1CCC2(CC1)C(=O)N(C)c1ccccc12 |
| 816 s | COC[C@@H]1CN(C(=O)c2occc2C)C[C@H]1c1nc(C2CC2)no1 |
| 900 s | Cc1oc(C2CCN(S(=O)(=O)c3ccc(C(F)(F)F)cc3)CC2)nc1C(=O)N(C)C |
| 971 s | Cc1cc(NC(=O)CN2C(=O)C(C(=O)N3CCCC3)Sc3ccccc32)ccc1Br (configuration not stated) |
| 1070 s | CCc1cc(C(=O)N2CCCCCC2)nc2cc(-c3ccsc3)nn12 |
| 697 s | O=C(NC1CCCC1)C1CCN(C(=O)C2Sc3ccccc3NC2=O)CC1 (configuration not stated) |
| 1170 s | CCOc1nc2ccccc2nc1N1CCCC(C(=O)NCc2cccc(C)c2)C1 (configuration not stated) |

| RP-LC retention time | Compound |
| --- | --- |
| 701 s | Cn1nc(C(=O)N2CCCC2)c2c1CCN(C(=O)CCC(=O)N1CCN(c3ccccc3)CC1)C2 |
| 688 s | CCCNC(=O)C1CCN(c2ccc(SCC(=O)Nc3ccc(Cl)cc3F)nn2)CC1 |
| 1000 s | COc1nc2ccccc2nc1N1CCCC(C(=O)NC2CCCC2)C1 (configuration not stated) |
| 965 s | Cc1c(C(=O)NC2CCCCC2)sc2ncn(CC(=O)N3CC(C)CC(C)C3)c(=O)c12 (configuration not stated) |
| 682 s | Cc1[nH]c(C(=O)N2CCC(CC(=O)NCC3CCCO3)CC2)c(C)c1C(=O)OC(C)C (configuration not stated) |
| 1150 s | Cc1ccc(Sc2nccnc2N2CCCC(C(=O)NCc3ccccc3C)C2)cc1 (configuration not stated) |
| 826 s | CCOc1ccc2nc(NC(=O)C3CCN(C(=O)C4Sc5ccccc5NC4=O)CC3)sc2c1 (configuration not stated) |
| 739 s | COc1ccc(-c2cc(N3CCC(NC(=O)c4ccc(Cl)cc4)C3)n[nH]2)cc1 (configuration not stated) |
| 591 s | CC(C)CCNC(=O)C1CCN(C(=O)c2cc(-c3ccncc3)n[nH]2)CC1 |
| 792 s | Cc1noc(C2CN(C(=O)Nc3ccc(Cl)cc3C)CC23CCOCC3)n1 (configuration not stated) |
| 562 s | CCN1CCN(CCNC(=O)C2CCCN(c3nc4cccnc4s3)C2)CC1 (configuration not stated) |
| 839 s | Cc1ccc(CNC(=O)c2ccc3c(c2)nc2n3CCN(C3CCCCC3)C2=O)cc1 |
| 978 s | O=C(NCc1cccc(Br)c1)C1CCCN(C(=O)Cc2cccc3ccccc23)C1 (configuration not stated) |
| 756 s | Cc1cccc(C)c1NC(=O)C(C)n1cnc2nc3c(cc2c1=O)CCCC3 (configuration not stated) |
| 758 s | CN1C(=O)c2cc(C(=O)NC3CCCCC3)nn2CC1(C)C(=O)NCc1ccccc1 (configuration not stated) |
| 604 s | Cc1cc(NC(=O)C2CCN(c3ccc(-c4cccs4)nn3)CC2)sn1 |
| 567 s | CCN1CCN(C(=O)c2n[nH]c3c2CC(C)CC3)CC1 (configuration not stated) |
| 576 s | CC(=O)N1CCN(c2nc(-c3ccncc3)nc3c2CCC3)CC1 |
| 1140 s | CCC(C)(C)NC(=O)c1c(C)oc2ccn(Cc3ccc(F)cc3)c(=O)c12 |
| 788 s | Cn1nc(C(=O)N2C[C@@H]3C[C@H](NC(=O)c4ccccc4)[C@H]2C3)c2ccccc21 |
| 723 s | CCc1noc(NC(C)=O)c1-c1ccc(OC)c(S(=O)(=O)N2CCN(c3ncccn3)CC2)c1 |
